According to US10300106B2, “Autophagy-inducing peptide analogs” (Board of Regents, The University of Texas System, priority 2013, dated 2019):
Non-standard residues stand in square brackets, D forms with d. No end group written: not given here.

These sequences were tested on autophagy (p62 degradation, LC3-I to LC3-II conversion) (assay: Biochemical autophagy assays: western blot detection of p62 and of the conversion of LC3-I into LC3-II). Conditions: 10 micromolar; western blot; compared to 10 micromolar Tat-Beclin 1 compound.
Type: cell-based
Procedure: Autophagy can be detected directly, indirectly or inferentially by conventional assays, such as disclosed and/or exemplified herein, including biochemically (by assessing the generation of Atg8-PE or LC3-II or the degradation of p62) or microscopically (e.g. by observing the localization pattern of fluorescently tagged Atg8 or LC3).
To further assess the components of the beclin 1 peptide required for autophagy-inducing activity, a series of shorter peptides were developed. Activity was measured by biochemical autophagy assays including western blot detection of p62 (a protein degraded by autophagy) and western blot detection of the conversion of LC3-I into LC3-II (the lipidated autophagosome-associated form of LC3).

Row | Sequence | LC3-II conversion | p62 degradation
1 | VFNATFEIWHD [Wild-type (wt)] | increased LC3-II conversion | increased p62 degradation

Same assay, conditions: relative to the wild-type (wt) peptide; all peptides carry the 11 amino acid HIV TAT PTD and diglycine linker

Row | Sequence | Activity (autophagy inducing activity)
2 | CFNATFEIWHD ({Tat PTD}-GGCFNATFEIWHD) [Mutant 1, HIV TAT PTD-diglycine fusion peptide] | ~wt
3 | DHWIHFTANWV ([dD][dH][dW][dI][dH][dF][dT][dA][dN][dW][dV]; also: fused to TAT PTD via diglycine linker) [Mutant 30, D-retro-inverso counterpart of Mutant 17, with TAT PTD and diglycine linker] | >>wt
4 | FNATFEIWH (HIV TAT PTD and diglycine linker fused) [Mutant 26, HIV TAT PTD-diglycine fusion peptide] | >>wt
5 | FNATFEIWHD (HIV TAT PTD and diglycine linker fused) [Mutant 21, HIV TAT PTD-diglycine fusion peptide] | >wt
6 | VFDATFEIWHD ({Tat PTD}-GGVFDATFEIWHD) [Mutant 3, HIV TAT PTD-diglycine fusion peptide] | <<wt
7 | VFNACFEIWHD (HIV TAT PTD and diglycine linker fused) [Mutant 5, HIV TAT PTD-diglycine fusion peptide] | <wt
8 | VFNATFDIWHD (HIV TAT PTD and diglycine linker fused) [Mutant 7, HIV TAT PTD-diglycine fusion peptide] | ~wt
9 | VFNATFEFWHD (HIV TAT PTD and diglycine linker fused) [Mutant 18, HIV TAT PTD-diglycine fusion peptide] | ~wt
10 | VFNATFEIFHD (HIV TAT PTD and diglycine linker fused) [Mutant 9, HIV TAT PTD-diglycine fusion peptide] | ~wt
11 | VFNATFEIWH (HIV TAT PTD and diglycine linker fused) [Mutant 25, HIV TAT PTD-diglycine fusion peptide] | >wt
12 | VFNATFEIWHD [Wild-type (wt)] | wt
13 | VFNATFEIWHE (HIV TAT PTD-diglycine fusion) [Mutant 11, HIV TAT PTD-diglycine fusion peptide] | ~wt
14 | VFNATFEIWYD (HIV TAT PTD-diglycine fusion) [Mutant 10, HIV TAT PTD-diglycine fusion peptide] | ~wt
15 | VFNATFELWHD (HIV TAT PTD and diglycine linker fused) [Mutant 8, HIV TAT PTD-diglycine fusion peptide] | >wt
16 | VFNATFEMWHD (HIV TAT PTD-diglycine fusion) [Mutant 16, HIV TAT PTD-diglycine fusion peptide] | ~wt
17 | VFNATFERWHD (HIV TAT PTD and diglycine linker fused) [Mutant 20, HIV TAT PTD-diglycine fusion peptide] | ~wt
18 | VFNATFEVWHD (HIV TAT PTD-diglycine fusion) [Mutant 14, HIV TAT PTD-diglycine fusion peptide] | ~wt
19 | VFNATFEYWHD (HIV TAT PTD and diglycine linker fused) [Mutant 19, HIV TAT PTD-diglycine fusion peptide] | ~wt
20 | VFNATWEIWHD (HIV TAT PTD and diglycine linker fused) [Mutant 6, HIV TAT PTD-diglycine fusion peptide] | <wt
21 | VFNSTFEIWHD ({Tat PTD}-GGVFNSTFEIWHD) [Mutant 4, HIV TAT PTD-diglycine fusion peptide] | <<wt
22 | VLNATFEIWHD (HIV TAT PTD-diglycine fusion) [Mutant 15, HIV TAT PTD-diglycine fusion peptide] | ~wt
23 | VWNATFEIWHD ({Tat PTD}-GGVWNATFEIWHD) [Mutant 2, HIV TAT PTD-diglycine fusion peptide] | >wt
24 | VWNATFELWHD (HIV TAT PTD-diglycine fusion) [Mutant 12, HIV TAT PTD-diglycine fusion peptide] | ~wt
25 | VWNATFHIWH (HIV TAT PTD and diglycine linker fused) [Mutant 28, HIV TAT PTD-diglycine fusion peptide] | >>wt
26 | VWNATFHIWHD (HIV TAT PTD-diglycine fusion) [Mutant 17, HIV TAT PTD-diglycine fusion peptide] | >>wt
27 | VYNATFEIWHD (HIV TAT PTD-diglycine fusion) [Mutant 13, HIV TAT PTD-diglycine fusion peptide] | <wt
28 | WNATFHIWH (HIV TAT PTD and diglycine linker fused) [Mutant 27, HIV TAT PTD-diglycine fusion peptide] | >>wt
29 | WNATFHIWHD (HIV TAT PTD and diglycine linker fused) [Mutant 29, HIV TAT PTD-diglycine fusion peptide] | >>wt
